Marks after values point to notes of the source that are not given here.
Assays:
[1] = test system: patients with Multiple Sclerosis (MS); settings: for Tolerability: human, in vivo
Procedure: Eight patients with Multiple Sclerosis (MS) were treated according to the present invention.

[2] = test system: patients having rheumatoid arthritis; test: Rheumatoid arthritis patients on prednisone given Ropinirole; format: in vivo, human; settings: Ropinirole 2-20 mg qhs
[3] = test system: patient with chronic gout; test: Treatment of a patient with chronic gout and severe synovitis; format: in vivo, human; settings: one patient
Procedure: Adding colchicine, hydroxychloroquine and Etanercept only allowed them to decrease prednisone to 15 mg qd.

[4] = test system: patients with rheumatoid arthritis; settings: cited from earlier work
[5] = test system: rheumatoid arthritis (Ra) and Psoriatic arthritis (PsA) patients; test: Study of Example 1 continued to 18 months (Example 2); format: in vivo, human
Excerpt: The study of Example 1 was continued to 18 months. […] Fibromyalgia was a surrogate for a lack of deep (e.g., stage IV) restorative sleep.
JC refers to the number of swollen tender joints.

[6] = test system: rheumatoid arthritis (Ra) and Psoriatic arthritis (PsA) patients; test: Open-label retrospective chart analysis of patients starting Etanercept, with sleep/fibromyalgia treatment (Example 1); format: in vivo, human
Excerpt: The effect of sleep disturbance and/or overt fibromyalgia (FM) on Etanercept (ENBREL®, Immunex) efficacy was monitored in an open-label, retrospective chart analysis of rheumatoid arthritis (Ra) and Psoriatic arthritis (PsA) patients starting Etanercept due to inadequate response to prior disease-modifying and steroid treatment. Sixty six (66) consecutive patients (19 males, 47 Females; 39 positive for rheumatoid factor for rheumatoid arthritis, 13 negative for rheumatoid factor for rheumatoid arthritis, 14 having PsA) were treated at a suburban, referral-based rheumatology clinic. The patients were monitored for swollen/tender joints (joint count, JC), fibromyalgia tender point score, restorative sleep quality, and concomitant medication use, before and after adding Etanercept treatment. Concomitant medication use included prednisone, methotrexate, non-steroidal anti-inflammatory drugs (NSAIDS), azothioprine, sulfasalazine, and hydroxychloroquine.
All patients with overt FM and non-restorative sleep were treated with options for fibromyalgia (FM), including Trazodone, Lorazepam, Clonazepam, Carisoprodol, and/or Pramipexole as needed to decrease FM pain and sleep disturbance as previously reported. (Arthritis & Rheumatology 43:9 A1599 (2000); Arthritis & Rheumatology 42:9 A385 (1999); Arthritis & Rheumatology 41:9 A1359 (1998).)
The patient criteria were as follows: The mean arthritis duration was 9.2±1.3 years. Etanercept use was 14±1.5 months. The average age of the patients was 50.5±4.3 years. Their average initial erythrocyte sedimentation rate (ESR) was 22.0±8.0. Previous DMARDs 2.4±0.3. Their initial Joint Count was as follows: PsA 8.3, Ra-8.1, and Ra+13.2 The disease groups were combined: 20 patients had active FM (aFM). 29 never had FM (no FR).

[7] = test system: patients with Ankylosing Spondylitis; test: Treatment of patients with Ankylosing Spondylitis; format: in vivo, human
Procedure: Six patients with Ankylosing Spondylitis were treated according to the present invention. […] The patients were administered lorazepam 1-2 mg qhs or pramipexole 0.5-3.0 mg qhs.

[8] = test system: patients with Palindromic Rheumatism; test: Treatment of patients with Palindromic Rheumatism; format: in vivo, human; settings: five patients; clonazepam 2 mg, pramipexole 1-6 mg and/or lorazepam 2 mg qhs
Procedure: Five patient with Palindromic Rheumatism were treated according to the present invention. After adding clonazepam 2 mg, pramipexole 1-6 mg and/or lorazepam 2 mg qhs to their treatment, the patients reported that episodic severe pain decreased dramatically, by 90%.

[9] = test system: patient with Reiter's Syndrome; settings: one patient on Etanercept; pramipexole up to 4 mg qhs
[10] = test system: patients with Sjogren's Syndrome; test: Treatment of patients with dry eyes and mouth from Sjogren's Syndrome; format: in vivo, human; settings: Lorazepam 1-2 mg po qhs, Pramipexole later 0.5-4.0 mg qhs
Procedure: Three patients with dry eyes and mouth from Sjogren's Syndrome, were treated with lorazepam or pramipexole. […] Lorazepam was administered at 1-2 mg po qhs. Pramipexole was later administered at 0.5-4.0 mg qhs.

[11] = test system: patients having rheumatoid arthritis; test: Rheumatoid arthritis patients on Infliximab given sleep restorative agents; format: in vivo, human; settings: lorazepam 1-2 mg qhs or pramipexole
[12] = test system: patients with Behcet's Syndrome; test: Treatment of patients with Behcet's Syndrome; format: in vivo, human
Procedure: Three patients with Behcet's Syndrome were treated according to the present invention. For one patient, prednisone administration was supplemented with lorazepam at 2 mg qhs. […] For a second patient, lorazepam at 2 mg qhs was co-admnistered with Dapsone and prednisone.

[13] = test system: patient with ocular and articular Sarcoidosis; settings: one patient steroid-dependent for two years; Pramipexole to 3 mg qhs
Excerpt: A patient with ocular and articular Sarcoidosis was steroid-dependent for two years.

[14] = test system: patients having rheumatoid arthritis; test: Rheumatoid arthritis patients on Leflunamide given sleep restorative agents; format: in vivo, human; settings: lorazepam, clonazepam and/or pramipexole
[15] = test system: patients with Systemic Lupus Erythematosis; test: Treatment of patients with Systemic Lupus Erythematosis; format: in vivo, human
Procedure: Patients with Systemic Lupus Erythematosis were treated according to the present invention.
The dose range of pramipexole ranged from 2-6 mg qhs.

For CCCN(CCC)CCc1cccc2c1CC(=O)N2.Cl [Ropinirole, 4-[2-(dipropylamino)-ethyl]-1,3-dihydro-2H-indol-2-one mono hydrochloride], the Tolerability [1] was “intolerant” and the Prednisone dose [2] was “able to lower their prednisone doses”.

In the case of Etanercept, the Prednisone dose reached ([3]; colchicine, hydroxychloroquine and Etanercept added together, before sleep agents) is given as 15 mg qd, the “Patients who may not respond” value [4] is given as 15-20% and the “MTX abs (absolute change of methotrexate use)” value ([5]; 18 months, Active FM (N 6)) is given as “(6) +0.8 mg”. For the same compound, the “Pred abs (absolute change of steroid use)” value ([5]; 18 months, Active FM (N 9)) was “(9) −7.15 mg”, the “Joint count abs (absolute change)” value ([5]; 18 months, Active FM (N 10)) was “(10) −10.95” and the “MTX abs (absolute change of methotrexate use)” value ([5]; 18 months, Inactive FM (N 9)) was “(9) −20.1 mg”. The “Pred abs (absolute change of steroid use)” value ([5]; 18 months, Inactive FM (N 13)) was “(13) −7.92 mg”, the “Joint count abs (absolute change)” value ([5]; 18 months, Inactive FM (N 23)) was “(23) −8.98” and the “MTX abs (absolute change of methotrexate use)” value ([5]; 18 months, No FM (N 16), p 0.0002 across groups) was “(16) −17.5 mg”. For the same compound, the “Pred abs (absolute change of steroid use)” value ([5]; 18 months, No FM (N 19), p 0.8649 across groups) was “(19) −7.32 mg”, the “Joint count abs (absolute change)” value ([5]; 18 months, No FM (N 28), p 0.5685 across groups) was “(28) −11.54” and the “JC2, number of swollen tender joints, mean” value ([5]; patients converted from active FM to inactive FM, 12 months, study entry 9.1) was 4.6 # tender joints. The “Pred2, Pred used, mean” value ([5]; patients converted from active FM to inactive FM, 12 months, study entry 10.5) was 5.5 mg, the “MTX2, methotrexate used, mean” value ([5]; patients converted from active FM to inactive FM, 12 months, study entry 17.5) was 0 mg and the “JC3, number of swollen tender joints, mean” value ([5]; patients converted from active FM to inactive FM, 18 months, study entry 9.1) was 0 # tender joints. The “Pred3, Pred used, mean” value ([5]; patients converted from active FM to inactive FM, 18 months, study entry 10.5) was 1.8 mg, the “MTX3, methotrexate used, mean” value ([5]; patients converted from active FM to inactive FM, 18 months, study entry 17.5) was 0 mg and the “% Change Joint Count” value ([6]; No FM patients) was −93.9 ± 1.9%. The “% Change Methotrexate Dose” value ([6]; No FM patients) was −89.5 ± 8.4%, the “% Change Prednisone Dose” value ([6]; No FM patients) was −96.3 ± 4.0% and the “Δ Pred., prednisone dose after adding Etanercept” value (shortened to “Δ Pred., prednisone dose”) ([6]; No FM patients (29), before 8.0) was 8.0 → 0.3 mg/d. For the same compound, the “Δ MTX, methotrexate dose after adding Etanercept” value (from here on “Δ MTX, methotrexate dose”) ([6]; No FM patients (29), before 19.1) was 19.1 → 2.0 mg/wk, the “Δ Joint Count, value after adding Etanercept” value (“Δ Joint Count, value” for short) ([6]; No FM patients (29), before Etanercept 11.6) was 11.6 → 0.7 and the “Medication Discontinued: Azathioprine/Sulfasalazine/Hydroxychloroquine (patients)” value ([6]; No FM patients, p 0.019 across groups) was 10/11. For the same compound, the “Medication Discontinued: NSAIDs (patients)” value ([6]; No FM patients, p 0.045 across groups) was 6/7, the “Δ Joint Count, value” value ([6]; aFM (active fibromyalgia) patients (20), before Etanercept 11.5, M-W P 0.066) was 11.5 → 5.9 * and the “Medication Discontinued: Azathioprine/Sulfasalazine/Hydroxychloroquine (patients)” value ([6]; aFM patients) was 4/8. The “Medication Discontinued: NSAIDs (patients)” value ([6]; aFM patients) was 1/13, the “Δ Pred., prednisone dose” value ([6]; aFM patients (20), before 10.3, M-W P 0.1) was 10.3 → 5.9 # mg/d and the “Δ MTX, methotrexate dose” value ([6]; aFM patients (20), before 15.0, M-W P 0.002) was 15.0 → 13.3 ** mg/wk. For the same compound, the “% Change Joint Count” value ([6]; aFM patients, M-W P 0.001) was −47.8 ± 14.%, the “% Change Prednisone Dose” value ([6]; aFM patients, M-W P 0.001) was −48.5 ± 15.% and the “% Change Methotrexate Dose” value ([6]; aFM patients, M-W P < 0.001) was −11.3 ± 4.5%. For the same compound, the “Δ Joint Count, value” value ([6]; iFM (inactive fibromyalgia) patients (17), before Etanercept 10.1) was 10.1 → 0.5, the “% Change Joint Count” value ([6]; iFM patients) was −95.0 ± 1.9% and the “% Change Methotrexate Dose” value ([6]; iFM patients) was −100. ± 0.0%. The “% Change Prednisone Dose” value ([6]; iFM patients) was −94.5 ± 3.6%, the “Medication Discontinued: Azathioprine/Sulfasalazine/Hydroxychloroquine (patients)” value ([6]; iFM patients) was 9/9 and the “Medication Discontinued: NSAIDs (patients)” value ([6]; iFM patients) was 4/7. The “Δ Pred., prednisone dose” value ([6]; iFM patients (17), before 7.3) was 7.3 → 0.4 mg/d, the “Δ MTX, methotrexate dose” value ([6]; iFM patients (17), before 19.7) was 19.7 → 0.0 mg/wk and the “Disease activity under continued Etanercept” value ([7]; six patients after lorazepam or pramipexole, off Methotrexate and steroids) was “without evidence of active disease”.

In the case of CCCNC1CCc2nc(N)sc2C1 (stereo not drawn) [Pramipexole, 2-amino-4,5,6,7-tetrahydro-6-(propylamino)benzo-thiazole], the “Decrease of episodic severe pain” value [8] is reported as 90%, the Other medications stopped [8] is reported as “off narcotics, steroids, Etanercept, Infliximab, leflunamide, Azothioprine, sulfasalazine, hydroxychloroquine and colchicine” and the Tolerability [1] is reported as “intolerant”. The MS activity ([1]; three patients, pramipexole and/or lorazepam added) was “MS was quiet for over three years”, the “Discontinuation of other medications” value [9] was “able to discontinue methotrexate, steroids 5-10 mg qd, and narcotics” and the “Response of dactylitis and synovitis” value [9] was “dactylitis and synovitis responded better to Etanercept”. For the same compound, the “Resolution of dryness (eyes and mouth)” value ([10]; 3 patients on Hydroxychloroquine 200 mg po bid, nearly complete resolution in third patient) was “Complete resolution of the dryness in 2 of 3 patients”, the Hydroxychloroquine sparing ([10]; 3 patients) was “One daily dose of Hydroxychloroquine was discontinued and benefit maintained” and the Infliximab efficacy [11] was “increased efficacy of Infliximab”. For the same compound, the “Discontinuation of other medications” value ([3]; pramipexole and lorazepam added together) was “allowed the patient to discontinue steroids, colchicine, hydroxychoroquine, and narcotics”, the “Symptoms observed in the patient” value ([12]; second patient (pramipexole added to lorazepam), third patient (clonazepam 2 mg qhs)) was “No fatigue, mouth ulcers, skin vasculitis, hoarse voice or seizures were observed” and the Discontinuation of prednisone ([12]; single patients, lorazepam 2 mg qhs (patient 1), pramipexole added to lorazepam (patient 2), clonazepam 2 mg qhs (patient 3)) was “prednisone 5 mg qd could be discontinued”. The “Response of improved patients after adding the agent to their treatment” value ([5]; 12 month to 18 month time point, on Etanercept) was “did much better from the 12 month time point to the 18 month time point”, the “Expected prednisone discontinuation after conversion back to inactive FM” value ([5]; one patient who developed FM and needs prednisone 10 mg qd, planned treatment) was “expected to allow them to discontinue prednisone” and the “Decrease of steroids with disease still controlled” value [13] was 90%. For the same compound, the Leflunamide efficacy [14] was “increased Leflunamide efficacy”, the “Decrease or d/c of prednisone” value ([15]; 8 patients, pramipexole 2-6 mg qhs) was 80% and the Prednisone dose reached ([15]; person with life threatening leukopenia, steroids 60 mg qd before, Pramipexole increased to 3.5 mg q hs over 3 months) was 5 mg qd. For the same compound, the Symptoms noted ([15]; same patient after pramipexole 3-4.5 mg qhs) was “much less fatigue, anemia, joint pain, and had stable kidney function”, the Prednisone dose reached ([15]; same patient, pramipexole 3-4.5 mg qhs added, first time in 7 years) was 5 mg qd and the Complete blood count ([15]; same person, after Pramipexole) was “maintaining normal complete blood count”. For the same compound, the “Discontinuation of Methotrexate and steroids” value ([7]; six patients on Methotrexate, steroids 2-10 mg qd and Etanercept, lorazepam 1-2 mg qhs or pramipexole 0.5-3.0 mg qhs) was “All six patients were able to discontinue Methotrexate and steroids”.

From patent US20080089859A1, “ADMINISTRATION OF SLEEP RESTORATIVE AGENTS” (priority 2001, published 2008)
